According to patent publication EP1433789A1, “Pyrrolopyrazines and their use as selective apoptosis inducers” (Aponetics AG, priority 2002, dated 2004):

Key:
HeLa [1] = test: Hoechst 33342 nuclear staining (Table 3); assay type: cell-based, human; parameters: key: 0 relating to no activity; 1 relating to weak activity comprising less than 50% of the cells; score 2 relating to strong activity comprising more than 50% of the cells
Summary of the method: (§1)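 Adherent cells (3-5×10^3, pre-spread 24 h) or suspension cells (8-10×10^3) treated with compounds at 10, 3, 1 and 0.3 µM for 24 or 48 h, then Hoechst 33342 stained for 30 min. Apoptotic nuclear morphology scored by fluorescence microscopy: 0 none, 1 weak (<50% cells), 2 strong (>50% cells).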

Jurkat [2] = test: Hoechst 33342 nuclear staining (Table 3); assay type: cell-based, human; parameters: key: 0 relating to no activity; 1 relating to weak activity comprising less than 50% of the cells; score 2 relating to strong activity comprising more than 50% of the cells
Summary of the method: as §1

K562 = test: Hoechst 33342 nuclear staining (Table 3); assay type: cell-based, human; parameters: key: 0 relating to no activity; 1 relating to weak activity comprising less than 50% of the cells; score 2 relating to strong activity comprising more than 50% of the cells
Summary of the method: as §1

KB = test: Hoechst 33342 nuclear staining (Table 3); assay type: cell-based, human; parameters: key: 0 relating to no activity; 1 relating to weak activity comprising less than 50% of the cells; score 2 relating to strong activity comprising more than 50% of the cells
Summary of the method: as §1

A20 = test: AnnexinV/7-AAD staining; assay type: cell-based, mouse; conditions: A20, 10 µM, 24 h treatment
Summary of the method: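 Cells treated with compound at 10 µM final for 24 h, then stained with AnnexinV-GST/anti-GST Alexa 488 and 7-AAD and analysed by flow cytometry. Percent positive cells scored as 0 (<10%), 1 (10–50%) or 2 (>50%).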

HeLa [3] = test: PI staining for cell cycle distribution; assay type: cell-based, human; parameters: key: 0 indicates no occurrence at all; 1 for weak; 2 for strong occurrence; conditions: HeLa 10 µM, 24 h
Description: 1 - 2*10^5 cells are seeded into 24 well tissue culture plates and incubated for 24 h prior to compound addition. Compounds are added for 24 h in a final concentration of 3 µM or 10 µM. Adherent cells are harvested by trypsinization. The cell suspensions are fixed by adding 2 parts ice cold ethanol 100% while vortexing. Then the samples are stored for > 2 h at-20°C. Subsequently the cells are washed with PBS once and resuspended in 250 µl PBS containing 50 µg/ml PI (Calbiochem # 537059), then the samples are incubated at 37°C for 30 minutes and subsequently analyzed on a FACSCalibur™ monitoring linear PI fluorescence activity on FL2.. The readout allows the detection of a possible direct or indirect influence of the tested compounds on the cell cycle. The following events can occur: a) Generation of a subG1 peak indicative for DNA fragmentation, b) increase of the cell population arrested in G2M phase. Both events are scored by 1 for weak and 2 for strong occurrence. 0 indicates no occurrence at all. […]

HeLa [4] = test: BrdU incorporation (proliferation); assay type: cell-based, human; parameters: key: 0 for no activity; 1 for a moderate inhibition; 2 for strong inhibition of proliferation; conditions: 48 h
Description: (§2) Adherent cells are seeded out at 2 - 4*10^4 cells/well/ml in 24 well tissue culture plates 24 h prior to treatment. Suspension cells are seeded out at 2*10^5 cells/ml/well in 24 well plates. Compounds are added leading to final concentrations of 3 µM and 10 µM, respectively. Subsequently, BrdU (Molecular Probes #B-23151) at 10 µM final concentration is added and the plates are incubated for 48 h. After the incubation cells are processed according to standard procedures. The detection of the incorporated BrdU is done with the anti-bromodeoxyuridine Mab PRB-1, Alexa Fluor 660 conjugate (Molecular Probes #A-21306). The analysis is performed on a FACSCalibur™ by monitoring the fluorescence activity on FL3. The readout reflects DNA synthesis which is a hallmark for proliferation. The scores are defined the following: 0 for no activity, 1 for a moderate inhibition and 2 for strong inhibition of proliferation. Table 7 indicates inhibitory activities of several tested compounds on proliferation.

Jurkat [5] = test: BrdU incorporation (proliferation); assay type: cell-based, human; parameters: key: 0 for no activity; 1 for a moderate inhibition; 2 for strong inhibition of proliferation; conditions: 48 h
Description: as §2

SMILES	Hoechst 33342 nuclear staining (HeLa [1]; 24h, conc 0.3 (µM))	Hoechst 33342 nuclear staining (HeLa [1]; 24h, conc 1 (µM))	Hoechst 33342 nuclear staining (HeLa [1]; 24h, conc 3 (µM))	Hoechst 33342 nuclear staining (HeLa [1]; 24h, conc 10 (µM))	Hoechst 33342 nuclear staining (HeLa [1]; 48h, conc 0.3 (µM))	Hoechst 33342 nuclear staining (HeLa [1]; 48h, conc 1 (µM))	Hoechst 33342 nuclear staining (HeLa [1]; 48h, conc 3 (µM))	Hoechst 33342 nuclear staining (HeLa [1]; 48h, conc 10 (µM))	Hoechst 33342 nuclear staining (Jurkat [2]; 24h, conc 0.3 (µM))	Hoechst 33342 nuclear staining (Jurkat [2]; 24h, conc 1 (µM))	Hoechst 33342 nuclear staining (Jurkat [2]; 24h, conc 3 (µM))	Hoechst 33342 nuclear staining (Jurkat [2]; 24h, conc 10 (µM))	Hoechst 33342 nuclear staining (Jurkat [2]; 48h, conc 0.3 (µM))	Hoechst 33342 nuclear staining (Jurkat [2]; 48h, conc 1 (µM))	Hoechst 33342 nuclear staining (Jurkat [2]; 48h, conc 3 (µM))	Hoechst 33342 nuclear staining (Jurkat [2]; 48h, conc 10 (µM))	Hoechst 33342 nuclear staining (K562; K562, 24h, conc 0.3 (µM))	Hoechst 33342 nuclear staining (K562; K562, 24h, conc 1 (µM))	Hoechst 33342 nuclear staining (K562; K562, 24h, conc 3 (µM))	Hoechst 33342 nuclear staining (K562; K562, 48h, conc 0.3 (µM))	further results
CC1(C)Cc2ccccc2-c2c(Br)c3nc4ccccc4nc3n21 [No. 2, 13-Bromo-6,6-dimethyl-5,6-dihydro-6a,7,12-triaza-dibenzo[a,h]fluorene]	0	0	0	0	0	1 (1 relating to weak activity comprising less than 50% of the cells)	2 (score 2 relating to strong activity comprising more than 50% of the cells)	2 (score 2 relating to strong activity comprising more than 50% of the cells)	1 (1 relating to weak activity comprising less than 50% of the cells)	1 (1 relating to weak activity comprising less than 50% of the cells)	2 (score 2 relating to strong activity comprising more than 50% of the cells)	2 (score 2 relating to strong activity comprising more than 50% of the cells)	2 (score 2 relating to strong activity comprising more than 50% of the cells)	2 (score 2 relating to strong activity comprising more than 50% of the cells)	2 (score 2 relating to strong activity comprising more than 50% of the cells)	2 (score 2 relating to strong activity comprising more than 50% of the cells)	0	0	1 (1 relating to weak activity comprising less than 50% of the cells)	0	Hoechst 33342 nuclear staining (K562; K562, 48h, conc 1 (µM)): 0; Hoechst 33342 nuclear staining (K562; K562, 48h, conc 3 (µM)): 2 (score 2 relating to strong activity comprising more than 50% of the cells); Hoechst 33342 nuclear staining (K562; K562, 48h, conc 10 (µM)): 2 (score 2 relating to strong activity comprising more than 50% of the cells); Hoechst 33342 nuclear staining (KB; 24h, conc 0.3 (µM)): 0; Hoechst 33342 nuclear staining (KB; 24h, conc 1 (µM)): 0; Hoechst 33342 nuclear staining (KB; 24h, conc 3 (µM)): 0; Hoechst 33342 nuclear staining (KB; 24h, conc 10 (µM)): 0; Hoechst 33342 nuclear staining (KB; 48h, conc 0.3 (µM)): 0; Hoechst 33342 nuclear staining (KB; 48h, conc 1 (µM)): 0; Hoechst 33342 nuclear staining (KB; 48h, conc 3 (µM)): 0; Hoechst 33342 nuclear staining (KB; 48h, conc 10 (µM)): 0; percentage of positively stained cells (AnnexinV/7-AAD staining) (A20): 2 (score 2 relates to more than 50% positivity)
COc1cc2c(cc1OC)-c1c(Br)c3nc4ccccc4nc3n1C(C)C2 (centres unmarked) [compound 10]	0	0	0	2 (score 2 relating to strong activity comprising more than 50% of the cells)	0	0	2 (score 2 relating to strong activity comprising more than 50% of the cells)	2 (score 2 relating to strong activity comprising more than 50% of the cells)	1 (1 relating to weak activity comprising less than 50% of the cells)	2 (score 2 relating to strong activity comprising more than 50% of the cells)	2 (score 2 relating to strong activity comprising more than 50% of the cells)	2 (score 2 relating to strong activity comprising more than 50% of the cells)	1 (1 relating to weak activity comprising less than 50% of the cells)	2 (score 2 relating to strong activity comprising more than 50% of the cells)	2 (score 2 relating to strong activity comprising more than 50% of the cells)	2 (score 2 relating to strong activity comprising more than 50% of the cells)	0	0	2 (score 2 relating to strong activity comprising more than 50% of the cells)	0	Hoechst 33342 nuclear staining (K562; K562, 24h, conc 10 (µM)): 2 (score 2 relating to strong activity comprising more than 50% of the cells); Hoechst 33342 nuclear staining (K562; K562, 48h, conc 1 (µM)): 2 (score 2 relating to strong activity comprising more than 50% of the cells); Hoechst 33342 nuclear staining (K562; K562, 48h, conc 3 (µM)): 2 (score 2 relating to strong activity comprising more than 50% of the cells); Hoechst 33342 nuclear staining (K562; K562, 48h, conc 10 (µM)): 2 (score 2 relating to strong activity comprising more than 50% of the cells); Hoechst 33342 nuclear staining (KB; 24h, conc 0.3 (µM)): 0; Hoechst 33342 nuclear staining (KB; 24h, conc 1 (µM)): 0; Hoechst 33342 nuclear staining (KB; 24h, conc 3 (µM)): 2 (score 2 relating to strong activity comprising more than 50% of the cells); Hoechst 33342 nuclear staining (KB; 24h, conc 10 (µM)): 2 (score 2 relating to strong activity comprising more than 50% of the cells); Hoechst 33342 nuclear staining (KB; 48h, conc 0.3 (µM)): 0; Hoechst 33342 nuclear staining (KB; 48h, conc 1 (µM)): 2 (score 2 relating to strong activity comprising more than 50% of the cells); Hoechst 33342 nuclear staining (KB; 48h, conc 3 (µM)): 2 (score 2 relating to strong activity comprising more than 50% of the cells); Hoechst 33342 nuclear staining (KB; 48h, conc 10 (µM)): 2 (score 2 relating to strong activity comprising more than 50% of the cells); percentage of positively stained cells (AnnexinV/7-AAD staining) (A20): 1 (score 1 relates to more than 10% but less than 50%); G2M (increase of the cell population arrested in G2M phase) (HeLa [3]): 0; subG1 (generation of a subG1 peak indicative for DNA fragmentation) (HeLa [3]): 0; BrdU incorporation (inhibition of proliferation) (HeLa [4]; 3uM): 0; BrdU incorporation (inhibition of proliferation) (HeLa [4]; 10uM): 0; BrdU incorporation (inhibition of proliferation) (Jurkat [5]; 3uM): 2; BrdU incorporation (inhibition of proliferation) (Jurkat [5]; 10uM): 1
